US12577257B2, “Heterocyclic compounds” (Hoffmann-La Roche Inc., priority 2018, dated 2026)

Target: T1, MAGL (Homo sapiens, UniProt Q99685)
T1 sequence (Q99685 1-303): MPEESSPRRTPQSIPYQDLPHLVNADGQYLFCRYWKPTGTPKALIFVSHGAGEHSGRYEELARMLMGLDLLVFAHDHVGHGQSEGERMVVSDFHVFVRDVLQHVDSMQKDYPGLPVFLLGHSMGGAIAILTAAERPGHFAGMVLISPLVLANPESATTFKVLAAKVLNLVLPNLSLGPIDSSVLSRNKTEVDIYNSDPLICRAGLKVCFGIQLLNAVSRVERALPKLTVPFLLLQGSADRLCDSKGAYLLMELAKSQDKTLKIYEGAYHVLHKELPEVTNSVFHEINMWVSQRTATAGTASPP
Assay: MAGL inhibition, Table 1 values with no assay marker (2-AG or 4-NPA assay not stated)
Assay type: biochemical
Conditions: not given
Description: Compounds were profiled for MAGL inhibitory activity by measuring the enzymatic activity of MAGL by following the hydrolysis of 4-nitrophenylacetate resulting in 4-nitrophenol, which absorbs at 405-412 nm (G. G. Muccioli, G. Labar, D. M. Lambert, Chem. Bio. Chem. 2008, 9, 2704-2710). This assay is hereinafter abbreviated “4-NPA assay”.
The 4-NPA assay was carried out in 384 well assay plates (black with clear bottom, non-binding surface treated, Corning Ref. 3655) in a total volume of 40 μL. Compound dilutions were made in 100% DMSO (VWR Chemicals 23500.297) in a polypropylene plate in 3-fold dilution steps to give a final concentration range in the assay from 25 μM to 1.7 nM. 1 μL compound dilutions (100% DMSO) were added to 19 μL MAGL (recombinant wild-type) in assay buffer (50 mM TRIS (GIBCO, 15567-027), 1 mM EDTA (Fluka, 03690-100 ml)). The plate was shaked for 1 min at 2000 rpm (Variomag Teleshake) and then incubated for 15 min at RT. To start the reaction, 20 μL 4-Nitrophenylacetate (Sigma N-8130) in assay buffer with 6% EtOH was added. The final concentrations in the assay were 1 nM MAGL and 300 μM 4-Nitrophenylacetate. After shaking (1 min, 2000 rpm) and 5 min incubation at RT, the absorbance at 405 nm was measured for a first time (Molecular Devices, SpectraMax Paradigm). A second measurement was then done after incubation for 80 min at RT. From the two measurements, the slope was calculated by subtracting the first from the second measurement.
(§1) Alternatively, compounds were profiled for MAGL inhibitory activity by determining the enzymatic activity by following the hydrolysis of the natural substrate 2-arachidonoylglycerol resulting in arachidonic acid, which can be followed by mass spectrometry. This assay is hereinafter abbreviated “2-AG assay”.
(§2) The 2-AG assay was carried out in 384 well assay plates (PP, Greiner Cat #784201) in a total volume of 20 μL. Compound dilutions were made in 100% DMSO (VWR Chemicals 23500.297) in a polypropylene plate in 3-fold dilution steps to give a final concentration range in the assay from 12.5 μM to […]. 0.25 μL compound dilutions (100% DMSO) were added to 9 μL MAGL in assay buffer (50 mM TRIS (GIBCO, 15567-027), 1 mM EDTA (Fluka, 03690-100 ml), 0.01% (v/v) Tween. After shaking, the plate was incubated for 15 min at RT. To start the reaction, 10 μL 2-arachidonoylglycerol in assay buffer was added. The final concentrations in the assay was […] and 8 μM 2-arachidonoylglycerol. After shaking and 30 min incubation at RT, the reaction was quenched by the addition of 40 μL of acetonitrile containing 4 μM of d8-arachidonic acid. The amount of arachidonic acid was traced by an online SPE system (Agilent Rapidfire) coupled to a triple quadrupole mass spectrometer (Agilent 6460). A C18 SPE cartridge (G9205A) was used in an acetonitrile/water liquid setup. The mass spectrometer was operated in negative electrospray mode following the mass transitions 303.1→259.1 for arachidonic acid and 311.1→267.0 for d8-arachidonic acid. The activity of the compounds was calculated based on the ratio of intensities [arachidonic acid/d8-arachidonic acid].

| IC50 | SMILES |
| --- | --- |
| 185 nM | O=C1CO[C@H]2CCN(C(=O)N3CC4(C3)CC(OCc3ccc(C(F)(F)F)cc3F)(C(F)(F)F)C4)C[C@H]2N1 [Example 44, (4aR,8aS)-6-(6-((2-fluoro-4-(trifluoromethyl)benzyl)oxy)-6-(trifluoromethyl)-2-azaspiro[3.3]heptane-2-carbonyl)hexahydro-2H-pyrido[4,3-b][1,4]oxazin-3(4H)-one] |
| 37 nM | O=C1CO[C@H]2CCN(C(=O)N3CC4(CC(c5ccc(C(F)(F)F)cc5F)C4)C3)C[C@H]2N1 [Example 45, (4aR,8aS)-6-(6-(2-fluoro-4-(trifluoromethyl)phenyl)-2-azaspiro[3.3]heptane-2-carbonyl)hexahydro-2H-pyrido[4,3-b][1,4]oxazin-3(4H)-one] |

Target: T1, MAGL
Assay: 2-AG assay: MAGL hydrolysis of 2-arachidonoylglycerol to arachidonic acid, followed by mass spectrometry
Assay type: biochemical
Conditions: footnote [a]: measured in 2-AG assay
Description: as §1, §2

| SMILES | IC50 |
| --- | --- |
| O=C1CO[C@H]2CCN(C(=O)N3CC4(CN(Cc5ccc(C(F)(F)F)cc5F)C4)C3)C[C@H]2N1 [Example 12, (4aR,8aS)-6-(6-(2-Fluoro-4-(trifluoromethyl)benzyl)-2,6-diazaspiro[3.3]heptane-2-carbonyl)hexahydro-2H-pyrido[4,3-b][1,4]oxazin-3(4H)-one] | 15.7 nM |
| O=C1CO[C@H]2CCN(C(=O)N3CCC4(CCN(Cc5ccc(C(F)(F)F)cc5F)C4)C3)C[C@H]2N1 (stereo partly drawn) [Example 14, (4aR,8aS)-6-(7-(2-Fluoro-4-(trifluoromethyl)benzyl)-2,7-diazaspiro[4.4]nonane-2-carbonyl)hexahydro-2H-pyrido[4,3-b][1,4]oxazin-3(4H)-one] | 268 nM |
| O=C1CO[C@H]2CCN(C(=O)N3CCC4(CN(Cc5ccc(C(F)(F)F)cc5F)C4)C3)C[C@H]2N1 [Example 15, (4aR,8aS)-6-(2-(2-Fluoro-4-(trifluoromethyl)benzyl)-2,6-diazaspiro[3.4]octane-6-carbonyl)hexahydro-2H-pyrido[4,3-b][1,4]oxazin-3(4H)-one] | 2030 nM |
| O=C1CO[C@H]2CCN(C(=O)N3CC4(C3)CN(S(=O)(=O)c3ccc(F)cc3Cl)C4)C[C@H]2N1 [Example 16, (4aR,8aS)-6-(6-((2-Chloro-4-fluorophenyl)sulfonyl)-2,6-diazaspiro[3.3]heptane-2-carbonyl)hexahydro-2H-pyrido[4,3-b][1,4]oxazin-3(4H)-one] | 228 nM |
| O=C1CO[C@H]2CCN(C(=O)N3CC4(C3)CN(S(=O)(=O)c3ccc(C(F)(F)F)cc3F)C4)C[C@H]2N1 [Example 17, (4aR,8aS)-6-(6-((2-Fluoro-4-(trifluoromethyl)phenyl)sulfonyl)-2,6-diazaspiro[3.3]heptane-2-carbonyl)hexahydro-2H-pyrido[4,3-b][1,4]oxazin-3(4H)-one] | 768 nM |
| O=C1CO[C@H]2CCN(C(=O)N3CC4(CC(Oc5cc(C(F)(F)F)c(C(F)(F)F)cn5)C4)C3)C[C@H]2N1 [Example 22, (4aR,8aS)-6-(6-((4,5-Bis(trifluoromethyl)pyridin-2-yl)oxy)-2-azaspiro[3.3]heptane-2-carbonyl)hexahydro-2H-pyrido[4,3-b][1,4]oxazin-3(4H)-one] | 3.8 nM |
| O=C1CO[C@H]2CCN(C(=O)N3CCC4(CC3)CN(S(=O)(=O)c3ccc(F)cc3Cl)C4)C[C@H]2N1 [Example 27, (4aR,8aS)-6-(2-((2-Chloro-4-fluorophenyl)sulfonyl)-2,7-diazaspiro[3.5]nonane-7-carbonyl)hexahydro-2H-pyrido[4,3-b][1,4]oxazin-3(4H)-one] | 33.1 nM |
| O=C1CO[C@H]2CCN(C(=O)N3CC4(CC(OCc5ccc(C(F)(F)F)cc5F)C4)C3)C[C@H]2N1 [Example 28, (4aR,8aS)-6-(6-((2-Fluoro-4-(trifluoromethyl)benzyl)oxy)-2-azaspiro[3.3]heptane-2-carbonyl)hexahydro-2H-pyrido[4,3-b][1,4]oxazin-3(4H)-one] | 36.4 nM |
| O=C1CO[C@H]2CCN(C(=O)N3CCC4(CC3)CN(S(=O)(=O)c3ccc(C(F)(F)F)cc3)C4)C[C@H]2N1 [Example 37, (4aR,8aS)-6-(2-((4-(Trifluoromethyl)phenyl)sulfonyl)-2,7-diazaspiro[3.5]nonane-7-carbonyl)hexahydro-2H-pyrido[4,3-b][1,4]oxazin-3(4H)-one] | 389 nM |
| O=C1CO[C@H]2CCN(C(=O)N3CCC4(CC3)CC(Oc3ccc(F)cc3F)C4)C[C@H]2N1 [Example 40, (4aR,8aS)-6-[2-(2,4-Difluorophenoxy)-7-azaspiro[3.5]nonane-7-carbonyl]-4,4a,5,7,8,8a-hexahydropyrido[4,3-b][1,4]oxazin-3-one] | 11.3 nM |
| O=C1CO[C@H]2CCN(C(=O)N3CCC4(CC3)CC(Oc3ccc(F)cc3Cl)C4)C[C@H]2N1 [Example 42, (4aR,8aS)-6-[2-(2-Chloro-4-fluoro-phenoxy)-7-azaspiro[3.5]nonane-7-carbonyl]-4,4a,5,7,8,8a-hexahydropyrido[4,3-b][1,4]oxazin-3-one] | 2.1 nM |

More lines, now with the values ahead:

| IC50 | SMILES |
| --- | --- |
| 76.4 nM | O=C1CO[C@H]2CCN(C(=O)N3CCC4(CC3)CN(Cc3ccc(C(F)(F)F)cc3F)C4)C[C@H]2N1 [Example 13, (4aR,8aS)-6-(2-(2-Fluoro-4-(trifluoromethyl)benzyl)-2,7-diazaspiro[3.5]nonane-7-carbonyl)hexahydro-2H-pyrido[4,3-b][1,4]oxazin-3(4H)-one] |
| 4.8 nM | O=C1CO[C@H]2CCN(C(=O)N3CC4(CC(Oc5ccc(C(F)(F)F)c(C(F)(F)F)n5)C4)C3)C[C@H]2N1 [Example 23, (4aR,8aS)-6-(6-((5,6-Bis(trifluoromethyl)pyridin-2-yl)oxy)-2-azaspiro[3.3]heptane-2-carbonyl)hexahydro-2H-pyrido[4,3-b][1,4]oxazin-3(4H)-one] |
| 20.9 nM | CN([C@H]1COC2(CCN(C(=O)N3CC[C@@H]4OCC(=O)N[C@@H]4C3)CC2)C1)S(=O)(=O)c1ccc(F)cc1Cl [Example 24, 2-Chloro-4-fluoro-N-methyl-N-((R)-8-((4aR,8aS)-3-oxooctahydro-2H-pyrido[4,3-b][1,4]oxazine-6-carbonyl)-1-oxa-8-azaspiro[4.5]decan-3-yl)benzenesulfonamide] |
| 28.9 nM | O=C1CO[C@H]2CCN(C(=O)N3CC4(CC(Oc5ccc(C(F)(F)F)cn5)C4)C3)C[C@H]2N1 [Example 25, (4aR,8aS)-6-(6-((5-(Trifluoromethyl)pyridin-2-yl)oxy)-2-azaspiro[3.3]heptane-2-carbonyl)hexahydro-2H-pyrido[4,3-b][1,4]oxazin-3(4H)-one] |
| 31 nM | Cc1ccc(COC2CC3(C2)CN(C(=O)N2CC[C@@H]4OCC(=O)N[C@@H]4C2)C3)cc1C(F)(F)F [Example 26, (4aR,8aS)-6-(6-((4-Methyl-3-(trifluoromethyl)benzyl)oxy)-2-azaspiro[3.3]heptane-2-carbonyl)hexahydro-2H-pyrido[4,3-b][1,4]oxazin-3(4H)-one] |
| 49.3 nM | CN([C@H]1COC2(CCN(C(=O)N3CC[C@@H]4OCC(=O)N[C@@H]4C3)CC2)C1)S(=O)(=O)c1ccccc1 [Example 30, N-Methyl-N-((R)-8-((4aR,8aS)-3-oxooctahydro-2H-pyrido[4,3-b][1,4]oxazine-6-carbonyl)-1-oxa-8-azaspiro[4.5]decan-3-yl)benzenesulfonamide] |
| 1 nM | O=C1CO[C@H]2CCN(C(=O)N3CC4(CC(COc5ccc(C(F)(F)F)cc5F)C4)C3)C[C@H]2N1 [Example 43, (4aR,8aS)-6-[6-[[2-Fluoro-4-(trifluoromethyl)phenoxy]methyl]-2-azaspiro[3.3]heptane-2-carbonyl]-4,4a,5,7,8,8a-hexahydropyrido[4,3-b][1,4]oxazin-3-one] |
